How the values were obtained:
[1] = target: T1, HDAC3 (Homo sapiens, UniProt O15379); test: HDAC enzymatic assay (Reaction Biology), HDAC3; assay type: biochemical
T1 construct: purchased Reaction Biology
Procedure: Compound 1 was tested in an enzymatic assay from Reaction Biology® against 10 HDAC isoforms. The IC50 values were derived from a 10-dose response curve.
Base Reaction buffer: 50 mM Tris-HCl, pH8.0, 137 mM NaCl, 2.7 mM KCl, and 1 mM MgCl2, Add fresh: 1 mg/ml BSA, 1% DMSO
Fluorogenic HDAC General Substrate (HDAC1, HDAC2, HDAC3, HDAC6, HDAC10, and HDAC11): 50 μM, Arg-His-Lys-Lys(Ac)-AMC
1. Delivered 2× enzyme in wells of reaction plate except in the control wells and added buffer to control wells. 2. Delivered compounds in 100% DMSO into the enzyme mixture by Acoustic technology (Echo550; nanoliter range). Spin down and pre-incubation. 3. Delivered 2× Substrate Mixture (Fluorogenic HDAC Substrate and co-factor if applicable) in all reaction wells to initiate the reaction. Spin and shake. 4. Incubated for 30 min for Class 2A, 1 h for HDAC1, 2, 3, and 6, and 2 h for the rest of HDAC isoforms and SIRTs at 30° C. with seal.
5. Added Developer with Trichostatin A (or Nicotinamide for SIRTs) to stop the reaction and to generate fluorescent color. 6. The fluorescence that was generated was detected with excitation (Ex) at […] and emission (Em) at 460 nM by the EnVision Multilabel Plate Reader (PerkinElmer®, Santa Clara, Calif., USA).
IC50 values were derived from a 10-dose response curve.

[2] = system: other identified HDAC proteins; test: Quantitative proteomics of cellular protein abundance in Kelly cells: other identified HDAC proteins; assay type: cell-based, human; settings: 1 μM, 5 hours, compared to DMSO control
Procedure: (§1) Lysis buffer (8 M Urea, 50 mM NaCl, 50 mM 4-(2hydroxyethyl)-1-piperazineethanesulfonic acid (EPPS) pH 8.5, protease and phosphatase inhibitors from Roche®) were added to the cell pellets and homogenized by 20 passes through a 21 gauge (1.25 in. long) needle to achieve a cell lysate with a protein concentration between 1-4 mg mL^−1. A micro-BCA assay (Pierce™) was used to determine the final protein concentration in the cell lysate. 200 μg of protein for each sample were reduced and alkylated as described in Donovan et al., Elife 7:e38430 (2018).
(§2) Proteins were precipitated using methanol/chloroform. Four volumes of methanol were added to the cell lysate, followed by one volume of chloroform, and finally three volumes of water. The mixture was vortexed and centrifuged to separate the chloroform phase from the aqueous phase. The precipitated protein was washed with three volumes of methanol, centrifuged and the resulting washed precipitated protein was allowed to air dry. The precipitated protein was resuspended in 4 M Urea, 50 mM HEPES pH 7.4, followed by dilution to 1 M urea with the addition of 200 mM EPPS, pH 8. Proteins were first digested with LysC (1:50; enzyme:protein) for 12 hours at room temperature. The LysC digestion was diluted to 0.5 M Urea with 200 mM EPPS pH 8 followed by digestion with trypsin (1:50; enzyme:protein) for 6 hours at 37° C. Tandem mass tag (TMT) reagents (Thermo Fisher Scientific) were dissolved in anhydrous acetonitrile (ACN) according to manufacturer's instructions.
Anhydrous ACN was added to each peptide sample to a final concentration of 30% v/v, and labeling was induced with the addition of TMT reagent to each sample at a ratio of 1:4 peptide:TMT label. […] The sample channels were combined at a 1:1:1:1:1:1:1:1:1:1:1 ratio, desalted using C18 solid phase extraction cartridges (Waters®) and analyzed by LC-MS for channel ratio comparison. Samples were then combined using the adjusted volumes determined in the channel ratio analysis and dried down in a speed vacuum. […]

[3] = system: HDAC6/8; test: Quantitative proteomics of cellular protein abundance in Kelly cells: HDAC6/8; assay type: cell-based, human; settings: for change of cellular HDAC6/8 protein levels (heat map FIG. 3): 1 μM, 5 hours, compared to DMSO control; for reduction in HDAC6/8 protein levels compared to DMSO treated cells: moderated t-test, scatter plots FIG. 2A-2C, 4A-4B
Procedure: as §1, §2
Anhydrous ACN was added to each peptide sample to a final concentration of 30% v/v, and labeling was induced with the addition of TMT reagent to each sample at a ratio of 1:4 peptide:TMT label. The 10-plex labeling reactions were performed for 1.5 hours at room temperature and the reaction quenched by the addition of hydroxylamine to a final concentration of 0.3% for 15 minutes at room temperature. The sample channels were combined at a 1:1:1:1:1:1:1:1:1:1:1 ratio, desalted using C18 solid phase extraction cartridges (Waters®) and analyzed by LC-MS for channel ratio comparison. Samples were then combined using the adjusted volumes determined in the channel ratio analysis and dried down in a speed vacuum. The combined sample was then resuspended in 1% formic acid, and acidified (pH 2-3) before being subjected to desalting with C18 SPE (Sep-Pak®, Waters®). Samples were then offline fractionated into 96 fractions by high pH reverse-phase HPLC (Agilent® LC1260) through an aeris peptide xb-c18 column (Phenomenex®) with mobile phase A containing 5% acetonitrile and 10 mM NH4HCO3 in LC-MS grade H2O, and mobile phase B containing 90% acetonitrile and 10 mM NH4HCO3 in LC-MS grade H2O (both pH 8.0). The 96 resulting fractions were then pooled in a non-continuous manner into 24 fractions and these fractions were used for subsequent mass spectrometry analysis.
Data were collected using an Orbitrap Fusion™ Lumos™ mass spectrometer (Thermo Fisher Scientific, San Jose, Calif., USA) coupled with a Proxeon EASY-nLC™ 1200 LC pump (Thermo Fisher Scientific). Peptides were separated on an EasySpray™ ES803 75 μm inner diameter microcapillary column (ThermoFisher Scientific).
Each analysis used an MS3-based TMT method as described in McAlister et al., Anal. Chem. 86(14):7150-7158 (2014). The data were acquired using a mass range of m/z 340-1350, resolution 120,000, automatic gain control (AGC) target 1×10^6, maximum injection time 100 ms, dynamic exclusion of 120 seconds for the peptide measurements in the Orbitrap Fusion™ Lumos™ mass spectrometer. Data dependent MS2 spectra were acquired in the ion trap with a normalized collision energy (NCE) set at 55%, AGC target set to 1.5×10^5 and a maximum injection time of 150 ms. […]

T1 sequence (O15379 whole entry): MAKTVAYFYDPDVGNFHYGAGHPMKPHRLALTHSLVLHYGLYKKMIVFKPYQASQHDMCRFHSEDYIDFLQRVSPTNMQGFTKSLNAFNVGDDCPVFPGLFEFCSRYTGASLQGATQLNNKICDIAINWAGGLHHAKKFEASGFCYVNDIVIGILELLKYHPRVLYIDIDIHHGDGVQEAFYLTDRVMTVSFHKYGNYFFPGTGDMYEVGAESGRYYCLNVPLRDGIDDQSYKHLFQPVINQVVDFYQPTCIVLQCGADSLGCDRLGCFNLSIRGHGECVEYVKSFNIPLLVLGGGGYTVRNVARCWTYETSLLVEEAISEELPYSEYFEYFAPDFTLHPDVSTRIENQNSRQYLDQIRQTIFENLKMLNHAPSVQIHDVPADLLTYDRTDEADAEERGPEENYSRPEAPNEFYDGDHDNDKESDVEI
T1 sequence (Q9Y618 395-489 partner limits assumed): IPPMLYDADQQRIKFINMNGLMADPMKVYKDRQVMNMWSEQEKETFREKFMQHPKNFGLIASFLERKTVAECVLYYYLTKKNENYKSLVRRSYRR

SMILES | IC50 ([1]; 10-dose response curve, read-out: Compound IC50 (M), HDAC3) [M] | inhibition of enzymatic activity of HDAC3 (in words) ([1]; summary of Table 1) | change of cellular protein levels of the other identified HDAC proteins (heat map FIG. 3) [2] | change of cellular HDAC6/8 protein levels (heat map FIG. 3) [3] | reduction in HDAC6/8 protein levels compared to DMSO treated cells [3]
O=C(/C=C/c1ccc(CN(CCOCCOCCNc2cccc3c2C(=O)N(C2CCC(=O)NC2=O)C3=O)CCc2c[nH]c3ccccc23)cc1)NO (centres unmarked) [Compound 1, (E)-3-(4-(((2-(1H-indol-3-yl)ethyl)(2-(2-(2-((2-(2,6-dioxopiperidin-3-yl)-1,3-dioxoisoindolin-4-yl)amino)ethoxy)ethoxy)ethyl)amino)methyl)phenyl)-N-hydroxyacrylamide] | 1.29e-06 | Moderate inhibition | did not affect | induced down-regulation | significant reduction
O=C(/C=C/c1ccc(CN(CCCCCNc2cccc3c2C(=O)N(C2CCC(=O)NC2=O)C3=O)CCc2c[nH]c3ccccc23)cc1)NO (centres unmarked) [Compound 3, (E)-3-(4-(((2-(1H-indol-3-yl)ethyl)(5-((2-(2,6-dioxopiperidin-3-yl)-1,3-dioxoisoindolin-4-yl)amino)pentyl)amino)methyl)phenyl)-N-hydroxyacrylamide] |  |  | did not affect | induced down-regulation | significant reduction
O=C(/C=C/c1ccc(CN(CCOCCNc2cccc3c2C(=O)N(C2CCC(=O)NC2=O)C3=O)CCc2c[nH]c3ccccc23)cc1)NO (centres unmarked) [Compound 2, (E)-3-(4-(((2-(1H-indol-3-yl)ethyl)(2-(2-((2-(2,6-dioxopiperidin-3-yl)-1,3-dioxoisoindolin-4-yl)amino)ethoxy)ethyl)amino)methyl)phenyl)-N-hydroxyacrylamide] |  |  | did not affect | induced down-regulation | significant reduction
